Test results: US20080227688A1, “Inhibition of viral replication” (priority 2007, published 2008)

Tested on: reovirus
Assay type: cell-based, Dearing strain of reovirus serotype 3

C[C@H](NC(=O)[C@H](Cc1ccccc1)NC(=O)OCc1ccccc1)C(=O)CF [Z-FA-FMK, N-benzyloxycarbonyl-Phe-Ala-fluoromethylketone]
cure of persistent reovirus infection (western blot, reovirus antiserum): cured persistently infected cells
